Assay results from US9878986B2, “Compounds for selective histone deacetylase inhibitors, and pharmaceutical composition comprising the same” (CHONG KUN DANG PHARMACEUTICAL CORP., priority 2013, dated 2018).

How the values were obtained:
Type in all cases: biochemical
[1] = biological target: T1, HDAC 2 (Homo sapiens, UniProt Q92769); assay: HDAC panel by Reaction Biology Corp., HDAC 2; details: read-out: HDAC inhibitory activities, HDAC 2
T1 construct: Reaction Biology Corp
From the text: (§1) The inhibitory activities of Compounds 255 and 374 on all HDACs were confirmed (by Reaction Biology Corp.).

[2] = biological target: T2, HDAC 3 (Homo sapiens, UniProt O15379); assay: HDAC panel by Reaction Biology Corp., HDAC 3; details: read-out: HDAC inhibitory activities, HDAC 3
T2 construct: Reaction Biology Corp
From the text: as §1

[3] = biological target: T3, HDAC 4 (Homo sapiens, UniProt P56524); assay: HDAC panel by Reaction Biology Corp., HDAC 4; details: read-out: HDAC inhibitory activities, HDAC 4
T3 construct: Reaction Biology Corp
From the text: as §1

[4] = biological target: T4, HDAC 7 (Homo sapiens, UniProt Q8WUI4); assay: HDAC panel by Reaction Biology Corp., HDAC 7; details: read-out: HDAC inhibitory activities, HDAC 7
T4 construct: Reaction Biology Corp
T4 sequence (Q8WUI4 1-952): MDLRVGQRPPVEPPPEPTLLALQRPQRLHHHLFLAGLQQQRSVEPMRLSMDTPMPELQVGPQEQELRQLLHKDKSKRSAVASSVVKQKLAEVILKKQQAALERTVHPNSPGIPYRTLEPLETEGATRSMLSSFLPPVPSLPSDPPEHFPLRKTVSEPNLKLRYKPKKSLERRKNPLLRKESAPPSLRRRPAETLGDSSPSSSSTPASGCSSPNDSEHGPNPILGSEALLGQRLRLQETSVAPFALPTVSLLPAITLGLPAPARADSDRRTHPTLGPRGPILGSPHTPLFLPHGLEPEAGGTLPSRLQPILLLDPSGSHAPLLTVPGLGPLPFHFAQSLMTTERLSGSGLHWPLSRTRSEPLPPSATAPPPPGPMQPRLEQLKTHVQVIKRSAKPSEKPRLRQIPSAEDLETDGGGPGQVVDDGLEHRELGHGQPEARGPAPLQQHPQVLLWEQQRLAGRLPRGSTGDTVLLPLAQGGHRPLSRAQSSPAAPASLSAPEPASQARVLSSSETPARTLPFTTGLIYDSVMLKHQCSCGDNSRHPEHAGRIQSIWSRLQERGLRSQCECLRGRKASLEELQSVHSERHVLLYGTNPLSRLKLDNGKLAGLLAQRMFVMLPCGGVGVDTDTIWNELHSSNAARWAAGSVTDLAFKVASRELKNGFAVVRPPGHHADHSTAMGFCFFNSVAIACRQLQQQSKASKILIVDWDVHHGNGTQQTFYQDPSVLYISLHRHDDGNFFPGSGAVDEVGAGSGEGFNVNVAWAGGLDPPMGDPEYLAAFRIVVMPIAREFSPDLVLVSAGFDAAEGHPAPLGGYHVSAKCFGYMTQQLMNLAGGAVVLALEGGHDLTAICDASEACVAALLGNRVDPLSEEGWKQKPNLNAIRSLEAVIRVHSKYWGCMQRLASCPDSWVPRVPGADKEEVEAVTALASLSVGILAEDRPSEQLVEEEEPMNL
From the text: as §1

[5] = biological target: T5, HDAC 8 (Homo sapiens, UniProt Q9BY41); assay: HDAC panel by Reaction Biology Corp., HDAC 8; details: read-out: HDAC inhibitory activities, HDAC 8
T5 construct: Reaction Biology Corp
T5 sequence (Q9BY41 1-377): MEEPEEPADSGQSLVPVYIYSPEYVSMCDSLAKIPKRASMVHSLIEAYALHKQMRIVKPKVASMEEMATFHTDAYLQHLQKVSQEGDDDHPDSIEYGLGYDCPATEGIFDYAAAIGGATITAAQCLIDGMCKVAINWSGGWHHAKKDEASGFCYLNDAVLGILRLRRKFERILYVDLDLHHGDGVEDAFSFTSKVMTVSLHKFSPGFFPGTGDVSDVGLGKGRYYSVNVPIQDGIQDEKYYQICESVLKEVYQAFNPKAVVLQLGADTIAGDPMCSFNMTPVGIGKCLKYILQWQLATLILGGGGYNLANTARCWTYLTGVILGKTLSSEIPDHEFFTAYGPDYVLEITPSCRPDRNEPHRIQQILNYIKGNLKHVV
From the text: as §1

[6] = biological target: T6, HDAC 6 (Homo sapiens, UniProt Q9UBN7); assay: HDAC panel by Reaction Biology Corp., HDAC 6; design: Reaction Biology Corp; details: for IC50: Table 15, Reaction Biology Corp., read-out: HDAC6 inhibitory activity; for Selectivity (HDAC6/1): ratio of the HDAC 1 and HDAC 6 values of Table 15; for selectivity for HDAC6 over HDAC1: text on Table 15
T6 sequence (Q9UBN7 1-1215): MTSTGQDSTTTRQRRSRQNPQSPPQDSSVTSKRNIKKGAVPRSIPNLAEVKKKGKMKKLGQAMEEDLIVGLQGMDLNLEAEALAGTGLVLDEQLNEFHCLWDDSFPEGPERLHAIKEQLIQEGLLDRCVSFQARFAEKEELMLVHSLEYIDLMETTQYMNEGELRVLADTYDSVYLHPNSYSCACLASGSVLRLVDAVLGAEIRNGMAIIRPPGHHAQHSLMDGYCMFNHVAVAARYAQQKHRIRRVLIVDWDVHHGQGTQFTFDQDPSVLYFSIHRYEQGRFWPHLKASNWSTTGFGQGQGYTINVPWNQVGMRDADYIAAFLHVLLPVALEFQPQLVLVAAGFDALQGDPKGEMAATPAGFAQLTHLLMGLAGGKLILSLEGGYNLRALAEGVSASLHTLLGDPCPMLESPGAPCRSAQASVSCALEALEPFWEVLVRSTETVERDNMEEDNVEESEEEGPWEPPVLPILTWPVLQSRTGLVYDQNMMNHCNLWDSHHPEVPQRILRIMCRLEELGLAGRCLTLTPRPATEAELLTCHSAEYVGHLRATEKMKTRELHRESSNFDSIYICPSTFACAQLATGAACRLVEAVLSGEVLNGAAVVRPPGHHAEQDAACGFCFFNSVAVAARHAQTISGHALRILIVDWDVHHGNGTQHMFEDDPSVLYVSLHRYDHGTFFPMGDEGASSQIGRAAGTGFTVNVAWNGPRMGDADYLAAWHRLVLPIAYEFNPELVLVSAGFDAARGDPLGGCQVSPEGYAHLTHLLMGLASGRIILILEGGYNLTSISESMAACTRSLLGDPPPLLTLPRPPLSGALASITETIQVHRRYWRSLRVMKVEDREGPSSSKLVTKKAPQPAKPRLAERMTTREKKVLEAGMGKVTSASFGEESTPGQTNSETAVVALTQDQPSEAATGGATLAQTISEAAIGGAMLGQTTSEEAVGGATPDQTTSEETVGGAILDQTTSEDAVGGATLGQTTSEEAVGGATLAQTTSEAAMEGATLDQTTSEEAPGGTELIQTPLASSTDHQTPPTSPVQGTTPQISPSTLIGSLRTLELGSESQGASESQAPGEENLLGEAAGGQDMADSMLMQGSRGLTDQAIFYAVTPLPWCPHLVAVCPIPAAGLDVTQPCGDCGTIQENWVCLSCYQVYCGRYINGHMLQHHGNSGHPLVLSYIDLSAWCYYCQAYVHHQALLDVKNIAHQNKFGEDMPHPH
From the text: as §1

T3 sequence (P56524 whole entry): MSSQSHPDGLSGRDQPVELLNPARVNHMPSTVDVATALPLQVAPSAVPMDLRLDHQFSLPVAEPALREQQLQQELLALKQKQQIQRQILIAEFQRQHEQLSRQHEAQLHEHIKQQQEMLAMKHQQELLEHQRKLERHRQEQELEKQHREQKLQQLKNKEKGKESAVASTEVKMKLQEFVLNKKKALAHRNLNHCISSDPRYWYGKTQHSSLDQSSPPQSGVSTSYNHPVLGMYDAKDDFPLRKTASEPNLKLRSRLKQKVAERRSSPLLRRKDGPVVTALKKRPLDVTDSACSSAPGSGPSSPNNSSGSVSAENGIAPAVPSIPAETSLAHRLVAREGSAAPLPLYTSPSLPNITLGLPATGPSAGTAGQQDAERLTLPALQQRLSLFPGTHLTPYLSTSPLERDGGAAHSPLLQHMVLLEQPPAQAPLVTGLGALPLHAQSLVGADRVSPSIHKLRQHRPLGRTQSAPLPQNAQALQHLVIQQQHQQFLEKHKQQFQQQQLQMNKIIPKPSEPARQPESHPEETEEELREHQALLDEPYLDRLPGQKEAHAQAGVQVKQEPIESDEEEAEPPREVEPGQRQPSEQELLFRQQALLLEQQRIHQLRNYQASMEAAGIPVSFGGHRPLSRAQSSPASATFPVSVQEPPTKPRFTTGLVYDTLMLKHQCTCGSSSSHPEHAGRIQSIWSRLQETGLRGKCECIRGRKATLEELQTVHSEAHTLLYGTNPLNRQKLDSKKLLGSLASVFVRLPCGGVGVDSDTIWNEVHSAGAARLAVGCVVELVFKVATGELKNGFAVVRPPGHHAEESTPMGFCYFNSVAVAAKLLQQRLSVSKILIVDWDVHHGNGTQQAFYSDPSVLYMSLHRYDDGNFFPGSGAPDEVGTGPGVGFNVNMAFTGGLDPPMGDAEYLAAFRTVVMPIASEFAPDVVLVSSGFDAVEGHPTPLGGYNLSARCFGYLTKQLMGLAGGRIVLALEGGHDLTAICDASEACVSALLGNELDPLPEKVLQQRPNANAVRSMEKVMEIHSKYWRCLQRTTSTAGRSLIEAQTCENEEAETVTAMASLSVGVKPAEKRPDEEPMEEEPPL
T1 sequence (Q92769 whole entry): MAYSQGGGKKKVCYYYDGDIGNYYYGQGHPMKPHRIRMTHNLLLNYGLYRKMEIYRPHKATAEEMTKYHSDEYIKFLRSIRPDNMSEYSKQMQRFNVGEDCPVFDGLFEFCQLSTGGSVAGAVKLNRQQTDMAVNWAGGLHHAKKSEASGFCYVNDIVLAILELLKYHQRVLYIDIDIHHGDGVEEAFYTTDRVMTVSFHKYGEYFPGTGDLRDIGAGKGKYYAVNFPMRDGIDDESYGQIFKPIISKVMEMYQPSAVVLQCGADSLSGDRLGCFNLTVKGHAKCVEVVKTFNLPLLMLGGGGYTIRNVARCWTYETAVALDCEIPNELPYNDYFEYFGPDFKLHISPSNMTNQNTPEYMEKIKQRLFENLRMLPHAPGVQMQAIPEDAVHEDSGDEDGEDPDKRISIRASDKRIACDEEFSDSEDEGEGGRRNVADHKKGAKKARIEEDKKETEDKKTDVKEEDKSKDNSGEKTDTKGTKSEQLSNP
T2 sequence (O15379 whole entry): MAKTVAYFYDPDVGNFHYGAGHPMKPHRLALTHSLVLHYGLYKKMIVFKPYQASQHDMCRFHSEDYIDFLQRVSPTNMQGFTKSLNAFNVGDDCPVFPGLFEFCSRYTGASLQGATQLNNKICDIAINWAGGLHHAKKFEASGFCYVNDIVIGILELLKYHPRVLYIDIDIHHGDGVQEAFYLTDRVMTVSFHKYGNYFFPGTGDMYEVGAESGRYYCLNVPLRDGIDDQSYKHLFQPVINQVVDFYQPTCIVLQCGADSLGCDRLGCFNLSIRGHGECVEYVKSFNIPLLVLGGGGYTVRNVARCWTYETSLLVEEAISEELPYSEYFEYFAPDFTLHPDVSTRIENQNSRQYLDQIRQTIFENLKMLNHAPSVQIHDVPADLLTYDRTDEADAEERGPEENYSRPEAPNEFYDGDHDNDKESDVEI
T2 sequence (Q9Y618 395-489 partner limits assumed): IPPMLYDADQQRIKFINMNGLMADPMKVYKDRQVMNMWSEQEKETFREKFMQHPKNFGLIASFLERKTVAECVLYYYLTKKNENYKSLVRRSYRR

IC50 [1] | IC50 [2] | IC50 [3] | IC50 [4] | IC50 [5] | IC50 [6] | Selectivity (HDAC6/1) [6] | selectivity for HDAC6 over HDAC1 [6] | Structure (SMILES)
690 nM | 1630 nM | 6860 nM | 1500 nM | 650 nM | 1 nM | 160 | 160 times | O=C(NO)c1ccc(CN(C(=O)N2CCOCC2)c2cccc(Br)c2)cc1 [Compound 255, N-(3-bromophenyl)-N-(4-(hydroxycarbamoyl)benzyl)morpholine-4-carboxamide]
4880 nM | 10300 nM | 16400 nM | 5250 nM | 2070 nM | 5 nM | 424 | 424 times | O=C(NO)c1ccc(CN(C(=O)N2CCOCC2)c2cccc(C(F)(F)F)c2)cc1 [Compound 374, N-(4-(hydroxycarbamoyl)benzyl)-N-(3-(trifluoromethyl)phenyl)morpholine-4-carboxamide]
